system: blood IL-2 levels induced by SEB; assay: In vivo model: mouse SEB/IL-2; parameters: species or system BALB/c mice; conditions: 100 mg/kg po, serum IL-2 two hours after SEB
Experimental: The compound to be tested is administered to BALB/c mice followed e.g. 1 h later, by an intravenous administration of 3 µg per mouse of SEB to induce a rise in blood IL-2 levels. Two hours after the administration of SEB, mice are bled, and levels of IL-2 are measured in the serum using standard methods. Under control conditions (vehicle only) IL-2 concentrations measured are mostly in the range of 2000 to 8000 pg/ml.

SMILES	inhibits the secretion of IL-2
CC(C)COC(=O)Nc1ccc(-c2cnc3c(-c4ccc(N5CCN(C)CC5)cc4)cnn3c2N)cc1 [Example 10, (4-{7-Amino-3-[4-(4-methyl-piperazin-1-yl)-phenyl]-pyrazolo[1,5-a]pyrimidin-6-yl}-phenyl)-carbamic acid isobutyl ester]	59%

molecular target: Lck (Homo sapiens, UniProt P06239); assay: Biochemical Lck kinase assay (TR-FRET, LANCE); conditions: not given
Sequence (P06239 whole entry, species assumed): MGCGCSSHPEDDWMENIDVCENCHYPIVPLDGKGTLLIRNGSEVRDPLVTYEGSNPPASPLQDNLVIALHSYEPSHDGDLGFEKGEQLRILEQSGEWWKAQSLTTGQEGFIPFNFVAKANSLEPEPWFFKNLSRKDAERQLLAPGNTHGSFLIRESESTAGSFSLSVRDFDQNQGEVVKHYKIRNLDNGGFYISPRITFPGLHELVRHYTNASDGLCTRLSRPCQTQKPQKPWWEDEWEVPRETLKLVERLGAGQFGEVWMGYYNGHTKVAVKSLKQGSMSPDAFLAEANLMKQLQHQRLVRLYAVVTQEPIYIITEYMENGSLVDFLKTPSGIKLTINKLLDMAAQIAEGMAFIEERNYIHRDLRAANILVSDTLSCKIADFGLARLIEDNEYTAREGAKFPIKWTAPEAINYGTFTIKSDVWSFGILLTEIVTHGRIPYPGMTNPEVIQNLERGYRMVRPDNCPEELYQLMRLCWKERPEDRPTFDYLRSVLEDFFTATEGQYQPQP

SMILES	IC50
CCc1ccc(OC(=O)Nc2ccc(-c3cnc4c(-c5cccc(N6CCN(C)CC6)c5)cnn4c3N)cc2)cc1 [Example 77]	25 nM
Cc1ccc([C@H](C)NC(=O)Nc2ccc(-c3cnc4c(-c5cccc(N6CCN(C)CC6)c5)cnn4c3N)cc2)cc1 [Example 172]	34 nM
CC(C)COC(=O)Nc1ccc(-c2cnc3c(-c4ccc(N5CCN(C)CC5)cc4)cnn3c2N)cc1 [Example 10, (4-{7-Amino-3-[4-(4-methyl-piperazin-1-yl)-phenyl]-pyrazolo[1,5-a]pyrimidin-6-yl}-phenyl)-carbamic acid isobutyl ester]	10 nM
Cc1cccc(OC(=O)Nc2ccc(-c3cnc4c(-c5cccc(N6CCN(C)CC6)c5)cnn4c3N)cc2)c1C [Example 65]	25 nM
Cc1ccc(NC(=O)Nc2ccc(-c3cnc4c(-c5cccc(N6CCN(C)CC6)c5)cnn4c3N)cc2)cc1 [Example 126]	15 nM

Source: patent US20100029636A1, “Lck inhibitors” (priority 2006, published 2010)
